This is an account of results in patent US10905680B2, “Methods of treatment for cholestatic and fibrotic diseases” (Genfit, priority 2016, dated 2021).

Experiment [1] relates to human primary hepatic stellate cells (hHSC). Put plainly: COL1A1 transcripts in TGFβ1-induced human HSC (RT-qPCR). To be noted: TGFβ1 1 ng/ml, 24 hours. In kind it is cell-based. The procedure:
Serum-deprived HSC were preincubated for 1 hour with NTZ (A) or TZ (B) before the activation with TGFβ1 (1 ng/ml). After 24 hours of incubation, the expression of COL1A1 was measured by RT-qPCR. Expression values were transformed into fold induction over TGFβ1 control. Data are presented as mean (triplicates)±standard deviation (SD). Statistical analyses were performed by one-way ANOVA followed by Bonferroni post-hoc tests, using Sigma Plot 11.0 software. [*: p<0.05; **: p<0.01; ***: p<0.001 (comparison versus TGFβ1 1 ng/mL group)]. The human primary hepatic stellate cells (hHSC) (Innoprot) were cultured under standard conditions, as described above. The cells were subsequently plated at a density of 7×10^4 cells/well into 24-well plates for gene expression studies, and at a density of 2×10^4 cells/well into 96-well plates for the measure of α-SMA by ELISA. The next day, cell culture medium was removed, and cells were washed with PBS (Invitrogen cat #14190). hHSC were deprived for 24 hours in serum-free and SteCGS-free medium. […] Quantitative PCR was then carried out using the MyiQ Single-Color Real-Time PCR Detection System (Biorad). […] Expression levels were determined using the standard curve equation for both the housekeeping gene and the target gene (taking into account the specific PCR efficiency of each target gene).
Background: Quantitative PCR measures a nucleic acid by following its amplification.

Experiment [2] shares this test system. The experiment can be described thus: TGFβ1-induced expression of α-SMA protein in human HSC (ELISA). In kind it is cell-based. The settings on record: TGFβ1 1 ng/ml, 48 hours. The procedure: Serum-deprived HSC were preincubated for 1 hour with NTZ (A) or TZ (B) before the activation with the profibrogenic cytokine TGFβ1 (1 ng/ml). After 48 hours of incubation, the expression of α-SMA was measured by ELISA. The obtained values were transformed into percentage inhibition over TGFβ1 control. Data are presented as mean (triplicates)±standard deviation (SD). Statistical analyses were performed by one-way ANOVA followed by Bonferroni post-hoc tests, using Sigma Plot 11.0 software. [*: p<0.05; **: p<0.01; ***: p<0.001 (comparison versus TGFβ1 1 ng/mL group)]. The curve fitting and the calculation of half maximal inhibitory concentration (IC50) were performed with XLFit software 5.3.1.3. The human primary hepatic stellate cells (hHSC) (Innoprot) were cultured in STeCM medium (ScienCell cat #5301) that was supplemented with 2% fetal bovine serum (FBS, ScienCell cat #0010), 1% penicillin/streptomycin (ScienCell cat #0503) and stellate cell growth supplement (SteCGS; ScienCell cat #5352). Cell culture flasks were coated with Poly-L Lysine (Sigma cat # P4707) for a better adherence. The human primary hepatic stellate cells (hHSC) (Innoprot) were cultured under standard conditions, as described above. The cells were subsequently plated at a density of 7×10^4 cells/well into 24-well plates for gene expression studies, and at a density of 2×10^4 cells/well into 96-well plates for the measure of α-SMA by ELISA. The next day, cell culture medium was removed, and cells were washed with PBS (Invitrogen cat #14190). hHSC were deprived for 24 hours in serum-free and SteCGS-free medium. For the treatments with NTZ or TZ, the serum-deprived hHSC were preincubated for 1 hour with the compounds followed by the addition of the profibrogenic stimuli TGFβ1 (PeproTech cat #100-21, 1 ng/mL) in serum-free and SteCGS-free medium for an additional 24 or 48 hour period (the timepoint is indicated in the figure legends). […] The level of α-SMA was measured using a Sandwich ELISA. […]
In general terms: In an ELISA, binding on a coated surface is turned into a signal by an enzyme label.

Broadly, the IC50 is the concentration that inhibits the measured activity by half. As to `O=C(Nc1ncc([N+](=O)[O-])s1)c1ccccc1O` [TZ, 2-hydroxy-N-(5-nitro-2-thiazolyl)benzamide], the COL1A1 transcripts entry in experiment [1] is “reduce”. Moreover, the IC50 in experiment [2] (Homo sapiens, 1 h preincubation, read-out: IC50 (level of α-SMA in TGFβ-induced HSCs)) was in the range of 100 to 3000 nM. In addition, the “level of α-SMA in TGFβ-induced HSCs” value in experiment [2] was “profile similar to the parent drug”.
